According to US20240254087A1, “SELECTIVE, PARTIAL, AND ARRESTIN-BIASED 5-HT2A AGONISTS WITH UTILITY IN VARIOUS DISORDERS” (Saint Joseph's University, priority 2021, published 2024):
Where a name gives a salt, the structure may show the parent alone.

Columns and labels:
5-HT2A [1] = target: T1, 5-HT2A (Homo sapiens, UniProt P28223); assay: [3H]-ketanserin displacement, 5-HT2A membranes; type: binding; parameters: ES-313-M400UA (membranes); host or cells: CHO-K1; conditions: [3H]-ketanserin displacement (n = 2); read-out: 5-HT2A pKi Mean ± SEM (converted)
5-HT2C [2] = target: T2, 5-HT2C (Homo sapiens, UniProt P28335); assay: Ca2+ flux assay, 5-HT2C; type: cell-based; parameters: expressed in transfected cells; conditions: for Emax: read-out: 5-HT2C Emax % 5-HT
T2 sequence (P28335 33-458): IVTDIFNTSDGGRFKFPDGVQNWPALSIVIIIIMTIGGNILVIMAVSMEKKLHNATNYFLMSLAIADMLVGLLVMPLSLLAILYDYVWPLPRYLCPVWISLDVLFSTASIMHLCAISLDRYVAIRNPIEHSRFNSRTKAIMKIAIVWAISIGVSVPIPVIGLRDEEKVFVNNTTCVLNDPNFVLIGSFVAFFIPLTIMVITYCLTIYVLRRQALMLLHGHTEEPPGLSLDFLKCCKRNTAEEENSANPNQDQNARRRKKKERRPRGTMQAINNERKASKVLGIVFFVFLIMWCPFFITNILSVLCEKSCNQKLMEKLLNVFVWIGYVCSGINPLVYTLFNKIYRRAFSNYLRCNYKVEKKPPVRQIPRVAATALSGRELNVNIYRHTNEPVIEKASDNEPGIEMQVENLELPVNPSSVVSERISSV
Procedure: (§1) Cell lines were maintained in DMEM containing 10% FBS, 10 μg/mL Blasticidin (Invivogen), and 100 μg/mL Hygromycin B (GoldBio). At least 20-24 hours before the assay, receptor expression was induced with tetracycline ([…]) and cells were seeded into 384-well poly-L-lysine-coated black plates at a density of 7,500 cells/well in DMEM containing 1% dialyzed FBS. On the day of the assay, the cells were incubated for 1 h at 37° C. with Fluo-4 Direct dye (Invitrogen, 20 μl/well) reconstituted in drug buffer (20 mM HEPES-buffered HBSS, pH 7.4) containing 2.5 mM probenecid. Drug dilutions were prepared at 5X final concentration in McCorvy buffer (20 mM HEPES-buffered HBSS, 0).1% BSA, 0.01% ascorbic acid pH 7.4). After dye load, cells were allowed to equilibrate to room temperature for 15 minutes, and then placed in a FLIPR^TETRA fluorescence imaging plate reader (Molecular Devices). Fluorescence for the FLIPR^TETRA were programmed to read baseline fluorescence for 10 s (1 read/s), and afterward 5 μl of drug per well was added and read for a total of 5-10 min (1 read/s). Fluorescence in each well was normalized to the average of the first 10 reads for baseline fluorescence, and then either maximum-fold peak increase over basal or area under the curve (AUC) was calculated. […] Data was plotted and non-linear regression was performed using “log(agonist) vs. response” in Graphpad Prism 8 to yield Emax and EC50 parameter estimates.

5-HT2B [3] = target: T3, 5-HT2B (Homo sapiens, UniProt P41595); assay: Ca2+ flux assay, 5-HT2B; type: cell-based; parameters: expressed in transfected cells; conditions: Ca2+ flux; for Emax: read-out: 5-HT2B Emax % 5-HT
Procedure: as §1

5-HT2A [4] = target: T1, 5-HT2A; assay: Ca2+ flux assay, 5-HT2A; type: cell-based; parameters: expressed in transfected cells; conditions: for EC50: 5-HT2A EC50, nM, Ca2+ flux; for Emax: read-out: 5-HT2A Emax % 5-HT, Ca2+ flux
Procedure: as §1

5-HT2C [5] = target: T2, 5-HT2C; assay: Competitive radioligand binding (NIMH PDSP); parameters: expressed in transfected cells
Procedure: (§2) Method 1: Competitive binding experiments were performed by the National Institute of Mental Health Psychoactive Drug Screening Program (NIMH PDSP) using described methods or 5-HT2A experiments performed using [3H]-ketanserin displacement in human 5-HT2A expressing membranes. Target compounds were dissolved in DMSO and an initial screen performed to assess displacement of the radioligand from target receptors at a concentration of 10,000 nM. […] For the Ki experiments, compounds were always tested in triplicate on separate plates. Each plate also contained a known ligand for the receptor as a positive control.

5-HT2B [6] = target: T3, 5-HT2B; assay: Competitive radioligand binding (NIMH PDSP); parameters: expressed in transfected cells
Procedure: as §2

5-HT1B = 5-HT1B (Homo sapiens, UniProt P28222); assay: Competitive radioligand binding (NIMH PDSP)
Procedure: as §2

5-HT3 = target: T4, 5-HT3 (Homo sapiens, UniProt P46098); assay: Competitive radioligand binding (NIMH PDSP)
T4 sequence (P46098 24-478): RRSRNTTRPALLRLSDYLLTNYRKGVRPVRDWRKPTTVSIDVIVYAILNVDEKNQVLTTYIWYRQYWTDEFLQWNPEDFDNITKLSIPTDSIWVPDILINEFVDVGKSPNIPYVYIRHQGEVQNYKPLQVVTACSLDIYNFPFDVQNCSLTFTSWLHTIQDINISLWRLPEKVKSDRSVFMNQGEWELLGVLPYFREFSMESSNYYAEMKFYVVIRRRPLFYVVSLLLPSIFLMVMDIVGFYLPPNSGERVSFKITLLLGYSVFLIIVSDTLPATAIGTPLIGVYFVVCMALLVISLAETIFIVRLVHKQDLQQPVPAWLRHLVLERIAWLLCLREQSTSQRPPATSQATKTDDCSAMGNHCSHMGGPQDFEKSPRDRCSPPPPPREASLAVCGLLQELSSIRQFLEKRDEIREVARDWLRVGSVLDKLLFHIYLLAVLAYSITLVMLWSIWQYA
Procedure: as §2

5-HT1A = target: T5, 5-HT1A (Homo sapiens, UniProt P08908); assay: Competitive radioligand binding (NIMH PDSP)
T5 sequence (P08908 1-422): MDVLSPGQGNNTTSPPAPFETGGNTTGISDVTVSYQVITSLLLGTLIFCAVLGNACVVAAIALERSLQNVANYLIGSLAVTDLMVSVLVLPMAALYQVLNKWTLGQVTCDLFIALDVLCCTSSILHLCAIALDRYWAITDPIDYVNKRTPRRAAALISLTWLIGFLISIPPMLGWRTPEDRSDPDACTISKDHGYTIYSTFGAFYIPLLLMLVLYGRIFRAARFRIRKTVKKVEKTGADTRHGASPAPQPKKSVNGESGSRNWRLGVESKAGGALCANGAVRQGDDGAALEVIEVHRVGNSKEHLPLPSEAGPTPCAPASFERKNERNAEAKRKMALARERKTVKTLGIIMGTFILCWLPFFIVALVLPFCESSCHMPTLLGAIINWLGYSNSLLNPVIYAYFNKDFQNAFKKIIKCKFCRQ
Procedure: as §2

5-HT1e = 5-HT1e (Homo sapiens, UniProt P28566); assay: Competitive radioligand binding (NIMH PDSP)
Procedure: as §2

5-HT2A [7] = target: T1, 5-HT2A; assay: Competitive radioligand binding (NIMH PDSP)
Procedure: as §2

5-HT1D = 5-HT1D (Homo sapiens, UniProt P28221); assay: Competitive radioligand binding (NIMH PDSP)
Procedure: as §2

5-HT2A [8] = assay: Ca2+ flux assay, 5-HT2A; type: cell-based, human; conditions: Gq/11 Ca2+ mobilization; higher number = skewed towards 5-HT2A
Procedure: as §1

Sequence of 5-HT1B (P28222 whole entry, species assumed): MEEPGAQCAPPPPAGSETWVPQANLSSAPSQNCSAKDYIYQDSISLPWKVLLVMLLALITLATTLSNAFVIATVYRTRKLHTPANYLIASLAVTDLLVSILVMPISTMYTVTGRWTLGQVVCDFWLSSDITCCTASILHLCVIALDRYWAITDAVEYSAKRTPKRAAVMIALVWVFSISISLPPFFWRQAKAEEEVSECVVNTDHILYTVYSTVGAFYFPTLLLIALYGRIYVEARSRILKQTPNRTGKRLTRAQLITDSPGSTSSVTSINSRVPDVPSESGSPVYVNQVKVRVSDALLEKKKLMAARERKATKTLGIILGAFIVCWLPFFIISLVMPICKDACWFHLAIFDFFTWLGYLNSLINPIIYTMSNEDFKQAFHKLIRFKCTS
Sequence of 5-HT1e (P28566 whole entry, species assumed): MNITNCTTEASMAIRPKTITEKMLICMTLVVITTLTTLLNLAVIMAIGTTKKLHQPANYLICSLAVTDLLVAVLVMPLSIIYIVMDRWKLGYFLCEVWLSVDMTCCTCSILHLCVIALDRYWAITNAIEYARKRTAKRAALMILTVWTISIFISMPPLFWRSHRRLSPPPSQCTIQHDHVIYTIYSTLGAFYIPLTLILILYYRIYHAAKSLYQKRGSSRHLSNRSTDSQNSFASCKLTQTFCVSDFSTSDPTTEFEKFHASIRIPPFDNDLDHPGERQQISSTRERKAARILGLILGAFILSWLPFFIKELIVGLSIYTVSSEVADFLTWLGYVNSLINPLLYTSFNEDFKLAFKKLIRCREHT
T3 sequence (P41595 whole entry): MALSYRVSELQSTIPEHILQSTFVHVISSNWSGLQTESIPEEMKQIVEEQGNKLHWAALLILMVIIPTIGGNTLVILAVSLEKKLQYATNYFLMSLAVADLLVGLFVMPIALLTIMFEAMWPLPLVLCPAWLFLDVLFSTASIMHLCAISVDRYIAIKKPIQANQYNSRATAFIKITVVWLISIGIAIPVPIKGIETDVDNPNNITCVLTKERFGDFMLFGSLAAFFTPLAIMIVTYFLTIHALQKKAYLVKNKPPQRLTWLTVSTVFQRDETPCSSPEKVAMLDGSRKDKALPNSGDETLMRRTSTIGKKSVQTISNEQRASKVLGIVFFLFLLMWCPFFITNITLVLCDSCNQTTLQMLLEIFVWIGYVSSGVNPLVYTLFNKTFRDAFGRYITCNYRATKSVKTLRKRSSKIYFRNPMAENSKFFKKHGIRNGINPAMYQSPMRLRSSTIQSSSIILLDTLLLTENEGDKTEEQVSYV
T1 sequence (P28223 whole entry): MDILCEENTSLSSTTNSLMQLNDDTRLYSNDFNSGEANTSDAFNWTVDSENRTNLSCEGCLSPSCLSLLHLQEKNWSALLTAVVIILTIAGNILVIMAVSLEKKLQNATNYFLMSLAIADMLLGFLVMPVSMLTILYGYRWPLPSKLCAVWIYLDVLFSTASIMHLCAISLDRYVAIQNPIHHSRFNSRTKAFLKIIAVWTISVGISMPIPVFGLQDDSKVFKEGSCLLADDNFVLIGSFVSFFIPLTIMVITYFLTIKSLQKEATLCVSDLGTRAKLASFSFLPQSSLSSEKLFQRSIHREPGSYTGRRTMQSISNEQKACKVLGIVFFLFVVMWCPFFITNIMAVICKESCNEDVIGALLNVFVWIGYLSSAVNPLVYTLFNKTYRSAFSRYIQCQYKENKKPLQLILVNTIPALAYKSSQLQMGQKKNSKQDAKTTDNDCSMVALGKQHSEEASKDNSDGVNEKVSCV
Sequence of 5-HT1D (P28221 whole entry, species assumed): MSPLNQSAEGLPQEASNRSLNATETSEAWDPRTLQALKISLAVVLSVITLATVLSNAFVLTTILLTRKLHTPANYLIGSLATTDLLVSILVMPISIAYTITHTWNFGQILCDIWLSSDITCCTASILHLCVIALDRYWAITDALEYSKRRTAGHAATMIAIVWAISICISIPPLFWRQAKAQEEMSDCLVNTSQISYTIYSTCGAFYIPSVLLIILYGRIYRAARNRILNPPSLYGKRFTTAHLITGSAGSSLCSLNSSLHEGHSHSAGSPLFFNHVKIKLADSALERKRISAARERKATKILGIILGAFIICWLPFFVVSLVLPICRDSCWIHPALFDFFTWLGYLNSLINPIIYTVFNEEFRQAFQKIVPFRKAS

SMILES | EC50 (5-HT2C [2]; 5-HT2C EC50, nM) | Emax (5-HT2C [2]) | 5-HT2B EC50, nM (5-HT2B [3]) | Emax (5-HT2B [3]) | EC50 (5-HT2A [4]) | Emax (5-HT2A [4]) | Ki (5-HT2C [5]) | Ki (5-HT2B [6]) | Ki (5-HT1B) | Ki (5-HT3) | Ki (5-HT1A) | Ki (5-HT1e) | Ki (5-HT2A [7]) | Ki (5-HT1D) | 5-HT2A/5-HT2c Selectivity Factor ΔLog(Emax/EC50) (5-HT2A [8]) | melting point | further results
COc1cc(OC)c(OC)cc1CCNCc1cccc2ccsc12 [(73), N-(benzo[b]thiophen-7-ylmethyl)-2-(2,4,5-trimethoxyphenyl)-ethan-1-amine] |  |  |  |  |  |  |  |  |  |  |  |  |  |  |  |  | Ki (5-HT2A [1]): 29.5 nM
COc1cc([N+](=O)[O-])c(OC)cc1CCNCc1cccc2c1OC(F)(F)O2 [25N-NBMDF2 (13), [(2,2-difluoro-2H-1,3-benzodioxol-4-yl)methyl][2-(2,5-dimethoxy-4-nitrophenyl)ethyl]amine] | 431 nM | 49 ± 4% | No activity | < 10% | 3.02 nM | 86 ± 2% | 214 nM | 46.8 nM | > 10000 nM | > 10000 nM | 1000 nM | > 10000 nM | 1.2 nM | > 10000 nM | 252.5 |  | EC50 (5-HT2C [2]; 5-HT2C (pEC50 ± SEM)): 437 nM
COc1cc([N+](=O)[O-])c(OC)cc1CCNCc1cccc(C)c1O (as salt: HCl) [25N-NB-2-OH-3-Me (18), 2-({[2-(2,5-dimethoxy-4-nitrophenyl)ethyl]amino}methyl)-6-methylphenol] |  |  |  |  |  |  |  |  |  |  |  |  |  |  |  | 177.6 to 179.5 °C | 
COc1cc(Br)c(CCNCc2cccc(C)c2O)cc1OC (as salt: HCl) [(43), 2-(((2-bromo-4,5-dimethoxyphenethyl)-amino)-methyl)-6-methylphenol] |  |  |  |  |  |  |  |  |  |  |  |  |  |  |  | 169.4 to 169.9 °C | 
COc1cc([N+](=O)[O-])c(OC)cc1CCNCc1ccccc1-c1ccccc1 (as salt: HCl) [25N-NBPh (17), ({[1,1′-biphenyl]-2-yl}methyl)[2-(2,5-dimethoxy-4-nitrophenyl)ethyl]amine] |  |  |  |  |  |  |  |  |  |  |  |  |  |  |  | 181.5 to 182.5 °C | 
COc1cc([N+](=O)[O-])c(OC)cc1CCNCc1ccc(F)cc1 [25N-NB-4-F (25), [2-(2,5-dimethoxy-4-nitrophenyl)ethyl][(4-fluorophenyl)methyl]amine] | 413 nM | 21 ± 2% | No activity | < 10% | 19.7 nM | 48 ± 2% | 813 nM | 85.1 nM | > 10000 nM | > 10000 nM | > 10000 nM | > 10000 nM | 6.17 nM | > 10000 nM | 43.3 |  | 
COc1cc([N+](=O)[O-])c(OC)cc1CCNCc1ccc(F)cc1 (as salt: HCl) [25N-NB-4-F (25), [2-(2,5-dimethoxy-4-nitrophenyl)ethyl][(4-fluorophenyl)methyl]amine] |  |  |  |  |  |  |  |  |  |  |  |  |  |  |  | 180 to 181 °C | 
COc1cc([N+](=O)[O-])c(OC)cc1CCNCc1cccc(F)c1 [25N-NB-3-F (24), [2-(2,5-dimethoxy-4-nitrophenyl)ethyl][(3-fluorophenyl)methyl]amine] | 149 nM | 54 ± 1% | No activity | < 10% | 2.25 nM | 85 ± 2% | 224 nM | 42.7 nM | > 10000 nM | > 10000 nM | > 10000 nM | > 10000 nM | 3.02 nM | > 10000 nM | 154.4 |  | 
COc1cc(OC)c(OC)cc1CCNCc1ccccc1-c1cccs1 (as salt: HCl) [(59), N-(2-(thiophen-2-yl)benzyl)-2-(2,4,5-trimethoxyphenyl)-ethan-1-amine] |  |  |  |  |  |  |  |  |  |  |  |  |  |  |  | 158.4 to 159.8 °C | 
COc1cc([N+](=O)[O-])c(OC)cc1CCNCc1ccc(C)cc1 [25N-NB-4-Me (23), [2-(2,5-dimethoxy-4-nitrophenyl)ethyl] [(4-methylphenyl)methyl]amine] | 844 nM | 14 ± 1% | No activity | < 10% | 38.3 nM | 42 ± 3% | 631 nM | 52.5 nM | > 10000 nM | > 10000 nM | 2630 nM | > 10000 nM | 5.5 nM | > 10000 nM | 66.1 |  | 
COc1cc([N+](=O)[O-])c(OC)cc1CCNCc1ccc(C)cc1 (as salt: HCl) [25N-NB-4-Me (23), [2-(2,5-dimethoxy-4-nitrophenyl)ethyl] [(4-methylphenyl)methyl]amine] |  |  |  |  |  |  |  |  |  |  |  |  |  |  |  | 182 to 184 °C | 
COc1cc(OC)c(OC)cc1CCNC(C)c1cccc2ccccc12 (stereo not shown) (as salt: HCl) |  |  |  |  |  |  |  |  |  |  |  |  |  |  |  | 195.2 to 196.4 °C | 
COc1cc([N+](=O)[O-])c(OC)cc1CCNCc1cccc2ccccc12 (as salt: HCl) [25N-N-1-Nap (16), [2-(2,5-dimethoxy-4-nitrophenyl)ethyl][(naphthalen-1-yl)methyl]amine] |  |  |  |  |  |  |  |  |  |  |  |  |  |  |  | 191.8 to 192.3 °C | 
